In paper PMC4661928, “Production of Two Novel Methoxy-Isoflavones from Biotransformation of 8-Hydroxydaidzein by Recombinant Escherichia coli Expressing O-Methyltransferase SpOMT2884 from Streptomyces peucetius” (International Journal of Molecular Sciences, 2015):

Biological target: T1, SpOMT2884 (Streptomyces peucetius, UniProt T1WTM5)
T1 construct: gene OMT2884; codon-optimised synthetic gene in pETDuet-1 (NdeI/XhoI), expressed in E. coli BL21(DE3); whole-cell biotransformation, not purified
T1 sequence (T1WTM5 1-223): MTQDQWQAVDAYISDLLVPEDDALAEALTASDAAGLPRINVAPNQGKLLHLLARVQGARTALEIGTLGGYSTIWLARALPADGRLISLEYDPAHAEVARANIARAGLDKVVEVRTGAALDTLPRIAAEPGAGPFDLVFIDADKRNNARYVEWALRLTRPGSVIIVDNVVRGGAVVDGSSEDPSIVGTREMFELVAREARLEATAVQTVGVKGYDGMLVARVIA
Test: whole-cell biotransformation, UPLC; products by MS and NMR
Assay type: cell-based
Conditions: recombinant E. coli BL21(DE3), 0.1 mM substrate, 37 °C, endogenous SAM; 7-O- and 8-O-methylation

## O=c1c(-c2ccc(O)cc2)coc2c(O)c(O)ccc12 [8-hydroxydaidzein]
  whole-cell biotransformation, UPLC; products by MS and NMR: SpOMT2884 catalyzes either 7-O-methylation or 8-O-methylation in 8-hydroxydaidzein
